Assay results published in US6392098B1, “Conformationally restricted polyamines” (Wisconsin Alumni Research Foundation, priority 1997, dated 2002).
Counter-ions that a name gives are not always drawn.

Legend:
[1] = system: brain cancer cells U251MG-NCI; assay: Growth of U251MG-NCI cells at fixed drug concentration (viable cells over days); format: cell-based, human
Procedure: FIGS. 7 and 8 depict the effect of fixed doses of 10 μM and 40 μM of the subject compounds, respectively, on the growth of the human brain cancer cell line U251MG-NCI. Here, the X-axis represents time in days, and the Y-axis represents the total number of viable cells.
Human breast cancer cell line MCF7 was grown in Richter's Improved Modified Eagle's Medium supplemented with 10% fetal bovine serum (FBS) and 2.2 g/L sodium bicarbonate. Human brain cancer cell line U251MG-NCI was grown in Dulbecco's Modified Eagle's Medium supplemented with 10% FBS. Human lung cancer cell line A549 was grown in Ham's F-12K medium (Fisher Scientific, Itasca, Ill.), supplemented with 10% FBS and 2 mM L-glutamine. Human colon cancer cell line HT29 was cultured in McCoy's 5A medium (Gibco, BRL, Gaithersburg, Md.), supplemented with 10% FBS. Human prostate cancer cell line PC3 was grown in Dulbecco's Modified Eagles Medium supplemented with 5% FBS. The A549 and MCF7 cell lines were cultured in 100 units/mL penicillin and 100 μg/mL streptomycin. HT29 and U251MG cell lines were grown in 50 μg/mL gentamycin. PC3 cell lines were maintained in 1% antibiotic-antimycotic solution (Sigma, St. Louis, Mo.). […]
Here, the above-identified compounds were administered in a 10 μM dose to cultures of the human brain cancer cell line U251MG-NCI and evaluated according to the standard protocol described above. […]

[2] = system: human brain cancer cells U251 MG; assay: MTT cell survival assay, U251MG NCI; format: cell-based; details: six days after drug treatment, read-out: Cytotoxic Activity Human Tumor Cell Lines ID50 U251MG NCl
Procedure: Human breast cancer cell line MCF7 was grown in Richter's Improved Modified Eagle's Medium supplemented with 10% fetal bovine serum (FBS) and 2.2 g/L sodium bicarbonate. Human brain cancer cell line U251MG-NCI was grown in Dulbecco's Modified Eagle's Medium supplemented with 10% FBS. […] Human prostate cancer cell line PC3 was grown in Dulbecco's Modified Eagles Medium supplemented with 5% FBS. […] The cell cultures were maintained at 37° C. in 5% CO2/95% humidified air.
Here, a conventional MTT assay was used to evaluate percent cell survival. Exponentially growing monolayer cells were plated in 96-well plates at a density of 500 cells per well and allowed to grow for 24 hours. Serial dilutions of the drugs were added to the wells. Six days after drug treatment, 25 μl of MTT solution (5 mg/ml) was added to each well and incubated for 4 hours at 37° C. Then 100 μl of lysis buffer (20% sodium dodecyl sulfate, 50% DMF, and 0.8% acetic acid, pH 4.7) was added to each well and incubated for an additional 22 hours. A microplate reader (“EMAX”-brand, Molecular Devices, Sunnyvale, Calif.) set at 570 nm was used to determine the optical density of the cultures. Results are expressed as a ratio of the optical density in drug-treated wells to the optical density in wells treated with vehicle only.
The ID50 is the drug concentration that killed 50% of the cultured cells.

Structure (SMILES) | melting point | also measured
CCNCCCNC1CC1NCCCNCC (centres unmarked) [SL-11027] | 240 °C (dec.) | effect on growth of U251MG-NCI cells ([1]; 10 μM concentration): marked inhibition of cell growth
CCNCCCNC1CCC1NCCCNCC (centres unmarked) [SL-11034] |  | effect on growth of U251MG-NCI cells ([1]; 40 μM concentration): marked inhibition of cell growth
CCNCCCNCC1CC1CNCCCNCC (stereo not drawn) [SL-11038, N-Ethyl-N′-(2-(3′-ethylamino-propylaminomethyl)-trans-cyclopropylmethyl)-propane-1,3-diamine tetrahydrochloride] |  | IC50 [2]: 100 nM

Continued, in another order:

melting point | Structure (SMILES) | also measured
240 °C (dec.) | CCNCCCNC[C@@H]1C[C@@H]1CNCCCNCC (as salt: hydrochloride) [SL-11037, N-Ethyl-N′-(2-(3′-ethylamino-propylaminomethyl)-cis-cyclopropylmethyl)-propane 1,3-diamine tetrahydrochloride] | 
270 °C (dec.) | CCNCCCNCC1CC1CNCCCNCC (stereo not drawn) (as salt: hydrochloride) [SL-11038, N-Ethyl-N′-(2-(3′-ethylamino-propylaminomethyl)-trans-cyclopropylmethyl)-propane-1,3-diamine tetrahydrochloride] | 
92 to 93 °C | CCNCCCNC[C@H]1CC[C@H]1CNCCCNCC (as salt: hydrochloride) [SL-11043, N-Ethyl-N′-(2-(3′-ethylamino-propylaminomethyl)-cis-cyclobutylmethyl)-propane1,3-diamine tetrahydrochloride] | 
77 to 78 °C | CCNCCCNCC1CCC1CNCCCNCC (stereo not drawn) (as salt: hydrochloride) [SL-11044, N-Ethyl-N′-(2-(3′-ethylamino-propylaminomethyl)-trans-cyclobutylmethyl)-propane1,3-diamine tetrahydrochloride] | 
